Data: patent publication US12377037B2, “Cleavable comonomer strategy for accelerating removal of gel nail polish” (MASSACHUSETTS INSTITUTE OF TECHNOLOGY, priority 2022, dated 2025)

Legend:
Assay type in all cases: physicochemical
[1] = Solubility study of DOT derivatives in nail polish (supersaturated solution, quantitative 1H NMR); settings: for Solubility (wt % in polish): nail polish (clear topcoat), supersaturated solution filtered through 0.25 μm PTFE, quantitative 1H NMR; for Notes: solubility / appearance in nail polish solution: standard nail polish solution
Procedure: The solubility of various DOT derivatives in nail polish was observed by generating a supersaturated solution of the compounds in nail polish (clear topcoat). The supersaturated solution was filtered through a 0.25 μm PTFE syringe filter, and a known mass of an internal NMR standard (bis-1,4-trimethylsilylbenzene) was added. The amount of the compound that was dissolved in the nail polish was then determined by quantitative ^1H NMR. The solubility was taken as the amount of the weight fraction of the compound dissolved in nail polish in a supersaturated solution.

[2] = Disappearance of visible absorbance (yellowness) of polymer compositions under UV irradiation, image analysis in ImageJ; settings: upon polymerization
Procedure: In some embodiments, the polymer composition is prepared by polymerizing the first, second, and third monomers. In certain embodiments, the third monomer is added subsequently to a mixture of at least the first and second monomers. When added to the polymer composition, the third monomer may contribute a visible absorbance that obscures the intended color of the polymer. […] In some embodiments, UV irradiation initiates the polymerization process. The disappearance of the visible absorbance can be measured by image analysis in ImageJ. […] As shown, the visible absorbance of polymer compositions with concentrations of 1, 2, and 5 wt % 2SiPr-DOT disappears after 20 minutes of UV irradiation. Compositions with lower concentrations show a disappearance of viable absorbance between about 5 and about 10 minutes of UV irradiation.

[3] = Bench stability noted for DOT derivatives

Solubility (wt % in polish) [1]	Colour contributed to the polymer (visible absorbance) [2]	Notes: bench stability [3]	SMILES	Solubility in nail polish, comparison in words ([1]; nail polish, versus DOT or 2S^sBu-DOT)	Notes: solubility / appearance in nail polish solution [1]
7.64 wt % in polish	does not contribute a permanent color	–	CC(C)Sc1ccc2c(c1)-c1ccccc1COC2=S [2S^iPr-DOT, 2-(isopropylthio)dibenzo[c,e]oxepine-5(7H)-thione]	superior solubility in nail polish over DOT or 2S^sBu-DOT	Yellow crystalline solid; shows superior solubility in standard nail polish solution
2.00 wt % in polish	–	not bench stable	CCC(C)Sc1ccc2c(c1)-c1ccccc1COC2=S (centres unmarked) [2S^sBu-DOT]	–	cloudy and inhomogeneous in nail polish solution
2.23 wt % in polish	–	–	S=C1OCc2ccccc2-c2ccccc21 [DOT, dibenzo[c,e]oxepine-5(7H)-thione, reference compound]	–	–
